Test systems include ACHN; EKVX; HCC 2998; HOP-92; Hs-578T; LOX IMVI; MCF7; MDA-MB-435; Malme-3M; OVCAR-3; OVCAR-5; OVCAR-8; PC-3; SF-268; SF-295; SR; SW-620; TK-10; UO-31.
Holding throughout (assay): growth of human tumour cells (NCI), 48 h

The text below walks through data of ChEMBL document CHEMBL1201862, “PubChem BioAssay data set” (2004).

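How tested: cells in 96-well plates exposed to compound for 48 hours at five concentrations. GI50 marks 50% less growth.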 Calls of active or inactive are those of the source. Rule as the data show it: active = GI50 up to about 1.1 µM and inactive = higher.

With `CNC(=O)OC(C)CN1c2ccccc2Sc2ccccc21` (centres undefined), the GI50 was 83.8 µM (inactive) with ACHN; 51.4 µM (inactive) with EKVX; > 100 µM (inactive) with HCC 2998; 76.9 µM (inactive) in the test with HOP-92; > 100 µM (inactive) in the test on Hs-578T; 75.2 µM (inactive) in the test with LOX IMVI. In addition, the GI50 is > 100 µM (inactive) in the test on MCF7; 80.2 µM (inactive) in the test with MDA-MB-435; > 100 µM (inactive) with Malme-3M; > 100 µM (inactive) with OVCAR-3; > 100 µM (inactive) with OVCAR-5; > 100 µM (inactive) in the test on OVCAR-8. For the same compound, the GI50 in the test on PC-3 was 8.63 µM (inactive); in the test with SF-268 it was > 100 µM (inactive); in the test on SF-295, 45.1 µM (inactive); in the test with SR, 86.3 µM (inactive); with SW-620, > 100 µM (inactive); in the test with TK-10 it was > 100 µM (inactive). Moreover, the GI50 in the test with UO-31 was > 100 µM (inactive).
In the case of `CCOC(=O)N[C@H]1CCc2cc(O)c(OC)c(OC)c2-c2ccc(SC)c(=O)cc21`, the GI50 in the test with ACHN was 0.069 µM (active); in the test with EKVX, 0.483 µM (active); in the test on HCC 2998, 0.113 µM (active); in the test with HOP-92, 0.0103 µM (active); with LOX IMVI it was 0.0234 µM (active); with Malme-3M it was 0.0111 µM (active). The GI50 with OVCAR-3 was 0.0123 µM (active); in the test on OVCAR-5 it was 0.614 µM (active); in the test on OVCAR-8 it was 0.0301 µM (active); in the test with SF-268, 0.0207 µM (active); with SF-295, 0.0123 µM (active); in the test with SR, 0.0345 µM (active). The GI50 was < 0.0137 µM (active) in the test with SW-620, 0.394 µM (active) with TK-10 and 0.736 µM (active) with UO-31.
For the compound `CCOC(=O)c1ccc(/N=C/C=C(\Nc2ccc(C(=O)OCC)cc2)c2ccc3ccccc3c2)cc1`, the GI50 in the test with ACHN was 30.5 µM (inactive); with HOP-92, 78 µM (inactive); in the test with Hs-578T, 31.1 µM (inactive); in the test with LOX IMVI, 15.7 µM (inactive); with MCF7, 23.4 µM (inactive); in the test on MDA-MB-435, 16.2 µM (inactive). Also, the GI50 with Malme-3M is 20.5 µM (inactive); in the test on OVCAR-3, 23.1 µM (inactive); in the test on OVCAR-5, 48.4 µM (inactive); in the test on OVCAR-8 it was 35.4 µM (inactive); in the test on PC-3 it was 31.3 µM (inactive); in the test on SF-268, 42.1 µM (inactive). For the same compound, the GI50 in the test on SF-295 was 28.2 µM (inactive); with SR, 20.3 µM (inactive); in the test on SW-620, 45.2 µM (inactive); with TK-10, 19.8 µM (inactive); in the test on UO-31 it was 40.8 µM (inactive).
`CN1CCN(CCSC2Cc3cc(Cl)ccc3Sc3ccccc32)CC1` (centres undefined): the GI50 is 8.36 µM (inactive) in the test with ACHN; 15.1 µM (inactive) in the test on EKVX; 4.18 µM (inactive) in the test with HCC 2998; 4.5 µM (inactive) with HOP-92; 2.28 µM (inactive) in the test with LOX IMVI; 2.45 µM (inactive) with Malme-3M. Also, the GI50 with OVCAR-3 was 8.2 µM (inactive); with OVCAR-5, 5.37 µM (inactive); in the test on OVCAR-8, 7.91 µM (inactive); in the test on SF-268, 8.47 µM (inactive); in the test with SF-295, 4.18 µM (inactive); with SR, 5.07 µM (inactive). Further, the GI50 with SW-620 was 2.81 µM (inactive); in the test with TK-10, 5.13 µM (inactive); in the test with UO-31 it was 8.11 µM (inactive).
In the case of `NCCN1CC2CCC(CC2)C1`, the GI50 in the test with ACHN, in the test with EKVX, in the test on HCC 2998, in the test with Hs-578T, in the test on LOX IMVI and in the test with MCF7 was > 10 µM (inactive) each time. The GI50 in the test with MDA-MB-435, with Malme-3M, in the test with OVCAR-3, with OVCAR-8, with PC-3 and in the test with SF-268 was > 10 µM (inactive) throughout. The GI50 with SF-295, in the test on SR, in the test on SW-620, with TK-10 and in the test on UO-31 was > 10 µM (inactive) throughout.
Regarding `COc1ccc(CNc2nc(NCc3ccc(OC)cc3)nc(N3CCOCC3)n2)cc1`, the GI50 with ACHN is 5.62 µM (inactive); in the test with EKVX it was 37.4 µM (inactive); in the test on HOP-92, 22.8 µM (inactive); in the test on Hs-578T, 4.23 µM (inactive); in the test on MCF7 it was 4.15 µM (inactive); with MDA-MB-435, 2.02 µM (inactive). In addition, the GI50 is 1.03 µM (active) with Malme-3M; 2.44 µM (inactive) in the test on OVCAR-3; 4.26 µM (inactive) with OVCAR-5; 6.81 µM (inactive) in the test on OVCAR-8; 4.05 µM (inactive) with PC-3; 2.77 µM (inactive) with SF-295. Also, the GI50 with SR was 2.79 µM (inactive); in the test with SW-620 it was 4.25 µM (inactive); in the test with TK-10, 3.4 µM (inactive); in the test on UO-31 it was 62.8 µM (inactive).
For `O=C(NCCN1CCOCC1)c1ccc(I)cc1`, the GI50 in the test with ACHN, with EKVX, in the test with HCC 2998, in the test on Hs-578T, in the test on LOX IMVI and in the test on MCF7 was > 100 µM (inactive) each time. Further, the GI50 with OVCAR-3, in the test on OVCAR-5, in the test with OVCAR-8, with PC-3, in the test on SF-268 and with SR was > 100 µM (inactive) each time. Also, the GI50 in the test with SW-620, in the test with TK-10 and in the test on UO-31 was > 100 µM (inactive) each time.
In the case of `O=C(O)c1ccc(/N=N/c2cc(S(=O)(=O)O)c3cccnc3c2O)cc1`, the GI50 with ACHN, with EKVX, in the test on HCC 2998, in the test with HOP-92, in the test on LOX IMVI and with Malme-3M was > 100 µM (inactive) throughout. In addition, the GI50 with OVCAR-3, in the test with OVCAR-5, in the test on OVCAR-8, in the test on SF-268, in the test on SF-295 and in the test on SR was > 100 µM (inactive) throughout. In addition, the GI50 with SW-620, in the test with TK-10 and in the test with UO-31 was > 100 µM (inactive) each time.
For `CCOC(=O)C1C(c2ccccc2)=C(c2ccccc2)C(c2ccccc2)=C1c1ccccc1`, the GI50 in the test with ACHN is 28.6 µM (inactive); with EKVX, > 88.3 µM (inactive); in the test on HCC 2998 it was > 100 µM (inactive); in the test on HOP-92, 12.4 µM (inactive); in the test on LOX IMVI, 58.9 µM (inactive); in the test with Malme-3M, 40.9 µM (inactive). The GI50 was 26.3 µM (inactive) with OVCAR-3; > 100 µM (inactive) in the test with OVCAR-5; 25.7 µM (inactive) with OVCAR-8; 43 µM (inactive) with SF-268; 23.6 µM (inactive) in the test on SF-295; 46.8 µM (inactive) in the test on SR. In addition, the GI50 in the test on SW-620 is 81.5 µM (inactive); with TK-10 it was 23.4 µM (inactive); with UO-31 it was 45.9 µM (inactive).
As for `CCN1C(=O)C/C(=C\C(C)=O)Nc2ccccc21`, the GI50 in the test on EKVX, in the test with HCC 2998, in the test on HOP-92, in the test with LOX IMVI, with Malme-3M and with OVCAR-3 was > 100 µM (inactive) throughout. The GI50 in the test with OVCAR-5, in the test on OVCAR-8, in the test with SF-268, in the test on SF-295, with SR and in the test with SW-620 was > 100 µM (inactive) throughout. Also, the GI50 with TK-10 and in the test on UO-31 was > 100 µM (inactive) each time.
In the case of `COc1cc2c(cc1OCCCOc1cc3c(cc1OC)C(=O)N1CCC[C@H]1C(=O)N3)N=C[C@@H]1CCCN1C2=O`, the GI50 with ACHN is 17.1 µM (inactive); in the test on EKVX it was 17 µM (inactive); in the test on HCC 2998, 14.3 µM (inactive); in the test with Hs-578T it was 29 µM (inactive); in the test with LOX IMVI, 3.07 µM (inactive); in the test on MCF7, 4.52 µM (inactive). For the same compound, the GI50 was 15.8 µM (inactive) with MDA-MB-435; 10.9 µM (inactive) in the test on Malme-3M; 19.5 µM (inactive) with OVCAR-3; 25.1 µM (inactive) with OVCAR-5; 23.4 µM (inactive) with OVCAR-8; 13.6 µM (inactive) in the test on PC-3. In addition, the GI50 in the test with SF-268 is 4.82 µM (inactive); with SF-295 it was 15.8 µM (inactive); in the test with SR, 1.54 µM (inactive); in the test with SW-620 it was 11 µM (inactive); with TK-10 it was 25.8 µM (inactive); with UO-31 it was 18.5 µM (inactive).
For the compound `N#Cc1ccc2[nH]c3c(c2c1)CC(=O)Nc1ccccc1-3` [PAULLONE 2], the GI50 with ACHN, with EKVX, with HCC 2998, in the test with HOP-92, in the test with Hs-578T and with LOX IMVI was > 100 µM (inactive) throughout. In addition, the GI50 in the test on MCF7, in the test with MDA-MB-435, with OVCAR-3, in the test on OVCAR-5, in the test on OVCAR-8 and in the test with PC-3 was > 100 µM (inactive) throughout. Further, the GI50 with SF-268 is > 100 µM (inactive); in the test on SF-295, > 100 µM (inactive); with SR, 2.9 µM (inactive); with SW-620 it was > 100 µM (inactive); in the test on TK-10, > 100 µM (inactive); in the test with UO-31 it was > 100 µM (inactive).
